# Read-outs that look alike come from different tables or passages of the source.
# Legend:
# [1] = target: T1, VR1 (Rattus norvegicus, UniProt O35433); assay: biochemical; assay type: binding
# T1 construct: expressed in transfected cells; host or cells: Chinese Hamster Ovary cells (CHO, ATCC CCL-61), Tet-off inducible expression
# [2] = system: Male ICR mice; assay: animal or person; assay type: in vivo; conditions: for ED50: Mus musculus, ip, read-out: Writhing Test (ED50 = μG/KG); for Relative effect (fold stronger than capsaicin): mouse, in vivo
# [3] = target: T1, VR1; assay: cell-based
# [4] = system: Male Sprague-Dawley rat; conditions: in vivo
# [5] = read-out: Binding Affinity (Ki = nM)
# T1 sequence (O35433 whole entry): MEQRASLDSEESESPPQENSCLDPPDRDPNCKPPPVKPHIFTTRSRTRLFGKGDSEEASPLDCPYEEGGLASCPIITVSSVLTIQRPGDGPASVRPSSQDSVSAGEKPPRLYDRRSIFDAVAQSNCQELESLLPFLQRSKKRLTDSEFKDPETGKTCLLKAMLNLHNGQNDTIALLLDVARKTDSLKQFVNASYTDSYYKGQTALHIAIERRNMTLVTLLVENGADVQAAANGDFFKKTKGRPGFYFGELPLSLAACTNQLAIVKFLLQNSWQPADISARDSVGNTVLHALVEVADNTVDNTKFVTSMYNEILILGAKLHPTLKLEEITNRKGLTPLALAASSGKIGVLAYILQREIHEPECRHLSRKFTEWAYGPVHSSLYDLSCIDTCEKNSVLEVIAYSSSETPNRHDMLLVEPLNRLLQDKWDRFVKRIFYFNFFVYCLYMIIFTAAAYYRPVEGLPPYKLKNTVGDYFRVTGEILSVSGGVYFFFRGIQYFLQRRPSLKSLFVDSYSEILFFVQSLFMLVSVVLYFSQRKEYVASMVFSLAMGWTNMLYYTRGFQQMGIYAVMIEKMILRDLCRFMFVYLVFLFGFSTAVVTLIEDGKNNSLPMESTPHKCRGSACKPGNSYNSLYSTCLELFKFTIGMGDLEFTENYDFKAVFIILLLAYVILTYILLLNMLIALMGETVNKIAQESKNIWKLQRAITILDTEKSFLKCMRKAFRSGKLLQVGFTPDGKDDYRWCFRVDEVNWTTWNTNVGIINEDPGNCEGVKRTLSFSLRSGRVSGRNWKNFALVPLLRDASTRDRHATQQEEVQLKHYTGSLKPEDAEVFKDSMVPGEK
SMILES,Ki [1] [nM],ED50 [2] [µg/kg],Relative effect (fold stronger than capsaicin) [2],MPP (moderate pain-producing potency) [4] [µg/mL],RPP (relative pain-producing potency) [4],also measured
"COc1cc(CC(=O)NCC(COC(=O)C(C)(C)C)Cc2ccc(C)c(C)c2)ccc1O (stereo not shown) [LJO-198, reference compound]",157,0.0235,57,,,
"COc1cc(CNC(=S)NC(CCc2ccc(C)c(C)c2)COC(=O)C(C)(C)C)ccc1O (stereo not shown) [Compound 64, N-[4-(3,4-Dimethylphenyl)-1-pivaloyloxy-2-butyl]-N′-[4-hydroxy-3-methoxybenzyl]thiourea]",244,,,,,
"COc1cc(CC(=O)NCC(CCc2ccc(C)c(C)c2)COC(=O)C(C)(C)C)ccc1O (stereo not shown) [Compound 34, N-[4-(3,4-Dimethylphenyl)-2-(pivaloyloxymethyl)butyl]-2-[4-hydroxy-3-methoxyphenyl]acetamide]",153,0.934,1.4,,,EC50 [3]: 0.784 nM; fold stronger effect than JYL-273 (45Ca influx EC50) [3]: 4 fold; fold stronger effect than LJO-198 (45Ca influx EC50) [3]: 16 fold; fold stronger effect than capsaicin (45Ca influx EC50) [3]: 57 fold
"COc1cc(CNC(=S)NC(COC(=O)C(C)(C)C)Cc2ccc(C(C)(C)C)cc2)ccc1OCCN (stereo not shown) [Compound 75, N-[3-(4-tert-Butylphenyl)-1-pivaloyloxy-2-propyl]-N′-[4-(2-aminoethoxy)-3-methoxybenzyl]thiourea]",341,0.00061,,47,~3.4,
"COc1cc(COC(=S)NCc2ccc(C(C)(C)C)cc2)ccc1O [Compound 147, N-(4-tert-Butylbenzyl)-O-(4-hydroxy-3-methoxybenzyl)thiocarbamate]",1940,,,,,
"COc1cc(COC(=S)NCC(COC(=O)C(C)(C)C)Cc2ccc(C)c(C)c2)ccc1O (stereo not shown) [Compound 140, N-[2-(3,4-Dimethylbenzyl)-3-(pivaloyloxy)propyl]-O-(4-hydroxy-3-methoxybenzyl)thiocarbamate]",156,,,,,EC50 [3]: 2.4 nM
"COc1cc(CNC(=S)NCC(CCc2ccc(C)c(C)c2)COC(=O)C(C)(C)C)ccc1O (stereo not shown) [Compound 28, N-[4-(3,4-Dimethylphenyl)-2-(pivaloyloxymethyl)butyl]-N′-[4-hydroxy-3-methoxybenzyl]thiourea]",24.9,,,,,
"COc1cc(CNC(=S)NC(COC(=O)C(C)(C)C)Cc2ccc(C(C)(C)C)cc2)ccc1O (stereo not shown) [Compound 63, N-[3-(4-tert-Butylphenyl)-1-pivaloyloxy-2-propyl]-N′-[4-hydroxy-3-methoxybenzyl]thiourea]",34.6,0.00036,,,,
"COc1cc(CNC(=O)CCCC/C=C/C(C)C)ccc1O [Capsaicin, 8-methyl-N-vanillyl-6-nonenamides, reference compound]",,1.34,,,,
"COc1cc(CNC(=S)NC(COC(=O)C(C)(C)C)Cc2ccc(C)c(C)c2)ccc1OCCN (stereo not shown) [Compound 74, N-[3-(3,4-Dimethylphenyl)-1-pivaloyloxy-2-propyl]-N′-[4-(2-aminoethoxy)-3-methoxybenzyl]thiourea]",,3e-05,,18.02,,
"COc1cc(CNC(=S)NC(COC(=O)C(C)(C)C)Cc2ccc(C)c(C)c2)ccc1O (stereo not shown) [Compound 62, N-[3-(3,4-Dimethylphenyl)-1-pivaloyloxy-2-propyl]-N′-[4-hydroxy-3-methoxybenzyl]thiourea]",45.3,0.006,224,11.57,14,
"COc1cc(CNC(=S)NCC(COC(=O)C(C)(C)C)Cc2ccc(C(C)(C)C)cc2)ccc1O (stereo not shown) [JYL-273, reference compound]",,0.107,,23,7,"Ki [1, 5]: 6.35 nM"
"COc1cc(CNC(=S)OCc2ccc(C(C)(C)C)cc2)ccc1O [Compound 132, O-(4-tert-Butylbenzyl)-N-(4-hydroxy-3-methoxybenzyl) thiocarbamate]",1960,,,,,
"COc1cc(CNC(=S)NCC(CCc2ccc(C(C)(C)C)cc2)COC(=O)C(C)(C)C)ccc1O (stereo not shown) [Compound 29, N-[4-tert-Butylphenyl-2-(pivaloyloxymethyl)butyl]-N′-[4-hydroxy-3-methoxybenzyl]thiourea]",18.3,,,,,
"COc1cc(CNC(=S)OCC(COC(=O)C(C)(C)C)Cc2ccc(C)c(C)c2)ccc1O (stereo not shown) [Compound 125, N-(4-hydroxy-3-methoxybenzyl)-O-[2-(3,4-Dimethylbenzyl)-3-(pivaloyloxy)propyl]thiocarbamate]",143,,,,,
"COc1cc(CC(=O)NCC(CCc2ccc(C)c(C)c2)COC(=O)C(C)(C)C)ccc1OCCN (stereo not shown) [Compound 38, N-[4-(3,4-Dimethylphenyl)-2-(pivaloyloxymethyl)butyl]-2-[4-(2-aminoethoxy)-3-methoxyphenyl]acetamide]",855,0.076,18,29,~5.5,
"COc1cc(CNC(=S)NCC(COC(=O)C(C)(C)C)Cc2ccc(C)c(C)c2)ccc1O (stereo not shown) [JYL-79, reference compound]",,0.161,8,1.7,94,"Ki [1, 5]: 17.4 nM"
"COc1cc(CC(=O)NCC(COC(=O)C(C)(C)C)Cc2ccc(C)c(C)c2)ccc1OCCN (stereo not shown) [MSK-195, reference compound]",603,1.17,1.1,14.9,11,
"COc1cc(CC(=O)NCC(CCc2ccc(C(C)(C)C)cc2)COC(=O)C(C)(C)C)ccc1O (stereo not shown) [Compound 35, N-[4-(4-tert-Butylphenyl)-2-(pivaloyloxymethyl)butyl]-2-[4-hydroxy-3-methoxyphenyl]acetamide]",36.3,,,,,

# Reference: patent US6872748B2 (priority 2001, dated 2005)
